What was measured:
Rye [1] = test: POST synergy treatments in pots; assay type: in vivo, ryegrass; conditions: POST emergence to 10 cm plants
Experimental: (§1) Potted plants. These assays are conducted in pots using a commercial potting media to establish broadleaf and grass plants with at least one true leaf. The cotyledons are not treated in these assays.

Timothy [2] = test: POST synergy treatments in pots; assay type: in vivo; conditions: POST emergence to 10 cm plants
Experimental: as §1

Rye [3] = test: PRE synergy of weed control in pots/soil; conditions: two weeks after planting, Pendimethalin / Mentha piperata, rate in label
Experimental: (§4) Potted soil. Commercial potting mix is used as a base with approximately 2 inches of 5% organic matter soil used on the top. Seeds are sown in the soil between 1 cm and 2.5 cm (as indicated by best practices for each plant-seed), filtered water added with various broadleaf and grass species to initiate germination. Conducted in the dark at 75/60 F day night temperature with relative humidity at 50%. Seeds are allowed to imbibe water for 24 hours. […] Seeds, wells have water added every two days. Seeds are monitored for 14 days following treatment. Visual rating for germination, radicle, shoot, and root elongation are recorded. Commercial herbicides are also used at the US label recommended rate for treatment as a positive control.

Timothy [4] = test: PRE synergy of weed control in pots/soil; conditions: two weeks after planting, Pendimethalin / Mentha piperata, rate in label
Experimental: as §4

2-leaf corn = test: Disrupting metabolism of herbicide resistant plants in pots; assay type: in vivo; conditions: POST to 2-leaf corn, Topramezone / Mentha piperata, rate in label
Description: (§2) Testing involves the same methods as listed above but with weeds/plants which are resistant to herbicides. An example plant is corn, which uses a cytochrome P450 enzyme(s) to detoxify certain commercially available herbicides (Ex. mesotrione). Corn also uses a glutathione S-transferase detoxification system for other commercially available herbicides (ex. Atrazine). Still other examples of herbicide detoxification include “Phase I” reactions—dechlorination, hydroxylation, decarboxylation, dealkylation, oxidation/reduction, and hydrolysis are the initial chemical reactions that occur. These reactions detoxify the herbicide and predispose the resultant metabolites to conjugation. “Phase II” reactions are another example, by conjugation with sugars, amino acids or natural plant constituents (metabolites are strongly bound). Also, “Phase II” I reactions are unique to plants and consist of secondary conjugation reactions or the formation of insoluble bound residues. Most crops grown in the world utilize detoxification, mixed function oxidase, enzymes to protect themselves from herbicides and other xenobiotics. Weeds also utilize this system of enzymes, as well as other biochemical actions, to prevent herbicides from damaging or killing the weeds. […]

seedlings = test: PRE germination synergy in Petri dishes, bleaching; assay type: in vivo, ryegrass and Timothy; conditions: preemergence, Topramezone / Mentha spicata, rate in label
Experimental: (§3) Petri Dish. Seed impacts. Dishes layered with filter paper and filtered water added with various broadleaf and unwanted grass species to initiate germination. Conducted in the dark at 75/60° F. day night temperature with relative humidity at 50%. […] The percent volume/volume of extract to water carrier is summarized above. The amount in mg/ml was calculated based on the percent of extract mixed with water. […] Seeds have water added every two days. […] Plates are exposed to 12/12 hour day/night cycle after 7 days.

Timothy [5] = test: Disrupting metabolism of herbicide resistant plants in pots, green loss; assay type: in vivo; conditions: POST, Topramezone / Mentha piperata, rate in label
Description: as §2

Rye [6] = test: PRE germination synergy in Petri dishes; assay type: in vivo, ryegrass; conditions: preemergence, Topramezone / Mentha spicata, rate in label
Experimental: as §3

Timothy [7] = test: PRE germination synergy in Petri dishes; assay type: in vivo; conditions: preemergence, Topramezone / Mentha spicata, rate in label
Experimental: as §3

[8] = Glyphosate / Mentha piperata, 7 days
[9] = Glyphosate / Mentha piperata, 14 days
[10] = Atrazine / Mentha piperata, rate in label

In the case of `O=C(O)CNCP(=O)(O)O` [Glyphosate 1x alone, Glyphosate], the “% control Rye 7 days” value (Rye [1]; [8]) was 0%, the “% control Rye 14 Days” value (Rye [1]; [9]) was 85% and the “% control Timothy 7 days” value (Timothy [2]; [8]) was 0%. For the same compound, the “% control Timothy 14 Days” value (Timothy [2]; [9]) was 90%.

`CCNc1nc(Cl)nc(NC(C)C)n1` [Atrazine 1x alone, Atrazine] was tested, and the “% control Rye” value (Rye [1]; [10]) was 55% and the “% control Timothy” value (Timothy [2]; [10]) was 60%.

`CCC(CC)Nc1c([N+](=O)[O-])cc(C)c(C)c1[N+](=O)[O-]` [Pendi 1x, Pendimethalin] was tested, and the “% control Rye” value (Rye [3]) was 37%, the “% control Rye” value (Rye [3]; listed as Pendi 2x) was 57% and the “% control Rye” value (Rye [3]; listed as Pendi 4x) was 92%. For the same compound, the “% control Timothy” value (Timothy [4]) was 50%, the “% control Timothy” value (Timothy [4]; listed as Pendi 2x) was 75% and the “% control Timothy” value (Timothy [4]; listed as Pendi 4x) was 83%.

With `Cc1c(C(=O)c2cnn(C)c2O)ccc(S(C)(=O)=O)c1C1=NOCC1` [Topro 1x alone, Topramezone] the “% Control 14 Day” value (2-leaf corn) was 0%, the “% bleaching of seedlings” value (seedlings) was 50% and the “% Green loss Timothy 14 Day” value (Timothy [5]) was 5%. For the same compound, the “PRE Germination % control Rye” value (Rye [6]) was 50% and the “PRE Germination % control Timothy” value (Timothy [7]) was 60%.

Reference: patent US20240016161A1, “HERBICIDAL MENTHA PLANT EXTRACT COMPOSITIONS AND METHODS OF USING SAME” (Harpe Bioherbicide Solutions Inc., priority 2020, published 2024)
